# Test results as given in patent US5856175A, “Device for detecting microorganisms” (priority 1996, dated 1999).
# Like-named read-outs stand apart in the source and are kept apart here.
# How the values were obtained:
# Type in all cases: cell-based
# Escherichia coli 29194 = assay: Antimicrobial susceptibility pattern using silicone-emulsion CO2 sensors (Table 4)
# Source text: (§1) Microtiter plates (96 flat bottom wells) containing 0.05% Xylenol blue silicone-emulsion sensors on the bottom were filled with 100 microliters of microbial growth medium containing no antibiotics (growth control wells) and nine different classes of antibiotics. Final concentrations of the antibiotics were achieved after addition of 100 microliters of inoculum (final inoculum of 5×10^7 CFU/ml) of the representative microorganisms. The concentrations of antibiotics used represent those used in determining if the test organism is sensitive, intermediate, or resistant to a particular antibiotic.
# (§2) After inoculating the microtiter tray, it was sealed with a pressure sensitive plastic plate sealer and initial readings were taken with a reflectance reader. The plate was then placed into a 37° C. incubator. After four hours incubation, the plate was removed and final reflectance readings were taken.
# (§3) The results in Table 4 show a pattern of growth, no growth, or intermediate growth of the four test organisms with the nine classes of antibiotics. This is indicative of the type of susceptibility of the organisms to the antibiotics. The organisms tested vary in their susceptibility pattern because of differences in their physiological makeup.
# [1] = tested on: Pseudomonas aeruginosa 27853; assay: as above
# Source text: as §1, §2, §3
# [2] = tested on: Staphylococcus aureus 25923; assay: as above
# Source text: as §1, §2, §3
# [3] = tested on: Streptococcus faecalis 29212; assay: as above
# Source text: as §1, §2, §3
# [4] = tested on: Escherichia coli (ATCC number 11775); assay: Carbon source utilization in carbon dioxide sensor plates (Example 6); settings: 0.5% bromosuccinic acid
# Procedure: (§4) 50 ml Kodak Universal Indicator was evaporated to dryness and resuspended in 2 ml HPCL grade isopropanol. 240 mg of phenolphthalein, sodium salt, dissolved in 2 ml of water was added to 1 ml of the concentrated Universal Indicator solution. 150 microliters of CAPS buffer (3-{cyclohexlamino}-1-propanesulfonic acid), pH 10.4, 500 mM was mixed with the phenolphthalein/Universal Indicator solution. This solution was added to 10 grams of GE RTV 615 A silicone that had been degassed for approximately 15 minutes. The silicone and indicator emulsion was mixed by hand stirring. 0.1 grams of white silicone pigment and 2 grams of GE RTV 615 B was added to the mixture. The mixture was hand mixed and degassed for approximately 5 minutes. The emulsion was transferred into a pressurized syringe dispenser fitted to an "air brush" sprayer and sprayed into a polystyrene 24 well plate that had previously been sprayed with 2 coats of GE silicone primer SS 4120. Enough of the indicator/silicone emulsion was sprayed into the wells to coat the bottom surface. The plate was then placed in a humidified oven and cured at 50° C. overnight. This spraying process was repeated on 3 consecutive days for a total of 3 coatings to the wells.
# (§5) Two organisms, Escherichia coli (ATCC number 11775) and Pseudomonas aeruginosa (ATCC number 1014), both type strains, were grown overnight (17 hours) in a complex medium as described in Example 3 C, at 37° C., with shaking. The organisms were harvested, spun down at 11950-X-g, at 4° C. for 20 minutes. The supernatant was poured off and the organisms were resuspended in 0.9% sterile saline to an OD600 =5.0.
# (§6) Each well of the prepared microtiter plate contained 1 ml of one of the following three media:
# (§7) a) a minimal medium buffered with 50 mM Hepes buffer, pH 7.2, containing no carbon source (the negative control);
# (§8) b) the same medium as the negative control except that it contained 0.5% bromosuccinic acid; and
# (§9) c) an undefined medium Trypticase soy yeast extract medium, buffered with 50 mM Hepes, pH 7.2 (the positive control).
# (§10) Twenty microliters of each prepared organism was added to duplicate wells of each type of media.
# (§11) The wells were sealed with cork stoppers and the plate was incubated at 37° C. Color changes of the sensor on the bottom of the plate were monitored by eye over a 6 hour period. After approximately 4 hours, two distinct patterns could be seen. […] The positive control wells for E. coli changed from purple to green to yellow to orange, indicating a pH change of the sensor from 10 to approximately 6. The positive control well for P. aeruginosa changed from purple to green to yellow (a pH change of the sensor from 10 to approximately 7). The wells with the bromosuccinic acid medium gave the most distinction between the two organisms. […]
# [5] = tested on: Pseudomonas aeruginosa (ATCC number 1014); assay: as above; settings: 0.5% bromosuccinic acid
# Procedure: as §4, §5, §6, §7, §8, §9, §10, §11
# [6] = tested on: Alcaligenes odorans 33585; assay: Pattern of inhibition using silicone-emulsion CO2 sensors (Table 3); settings: 5.4 mcg; 4 h, 37° C.; 5×10^7 CFU/ml
# Source text: (§12) Microbial identification using the described CO2 sensors can also be based on the principle of growth inhibition. This system differs from the classical biochemical identification systems, as identification is based on selective growth inhibition by inhibitory agents, such as dyes, antibiotics, and other substances. Once again, the production of CO2 is the measure of growth. The growth pattern produced in the presence of these inhibitory agents identifies the species of the test microorganism. The amount of growth is compared with a growth control well that contains no inhibitor. A profile is derived using a two-stage quadratic discriminate analysis based on the results derived from the battery of inhibitory agents.
# (§13) Microtiter plates (96 flat bottom wells) containing 0.05% xylenol blue silicone-emulsion sensors were filled with 100 microliters of microbial growth medium containing no inhibitors (growth control wells) and eighteen different dyes, antibiotics, and other inhibitory substances. Final concentrations of the inhibitors were achieved after addition of 100 microliters of inoculum (final inoculum of 5×10^7 CFU/ml) of the representative microorganisms.
# as §2
# Escherichia coli 33582 = assay: as above; settings: 5.4 mcg; 4 h, 37° C.; 5×10^7 CFU/ml
# Source text: as §12, §13, §2
# Proteus mirabilis 33583 = assay: as above; settings: 5.4 mcg; 4 h, 37° C.; 5×10^7 CFU/ml
# Source text: as §12, §13, §2
# [7] = tested on: Pseudomonas aeruginosa 33584; assay: as above; settings: 5.4 mcg; 4 h, 37° C.; 5×10^7 CFU/ml
# Source text: as §12, §13, §2
# [8] = 0.2 units, 4 h, 37° C., 5×10^7 CFU/ml
# [9] = Pseudomonas aeruginosa, 27853, 4 h, read-out: Percent growth as compared to a growth control without antibiotics
# [10] = Staphylococcus aureus, 25923, 4 h, read-out: Percent growth as compared to a growth control without antibiotics
# [11] = Enterococcus faecalis, 29212, 4 h, read-out: Percent growth as compared to a growth control without antibiotics
# [12] = Escherichia coli, 29194, 4 h, read-out: Percent growth as compared to a growth control without antibiotics
compound,measurement,setting,value
CC1(C)S[C@@H]2[C@H](NC(=O)Cc3ccccc3)C(=O)N2[C@H]1C(=O)O [Penicillin G],Percent growth as compared to a growth control without antibiotics,Escherichia coli 29194; [8],103%
same,Percent growth as compared to a growth control without antibiotics,[1]; [8],149%
same,Percent growth as compared to a growth control without antibiotics,[2]; [8],45%
same,Percent growth as compared to a growth control without antibiotics,[3]; [8],108%
O=C(N[C@H](CO)[C@H](O)c1ccc([N+](=O)[O-])cc1)C(Cl)Cl [Chloramphenicol],activity at 4 µg/mL,"Escherichia coli 29194; Escherichia coli, 29194, 4 mcg (per milliliter), 4 h, 37° C., 5×10^7 CFU/ml, read-out: Percent growth as compared to a growth control without antibiotics",14%
same,activity at 4 µg/mL,[1]; [9],88%
same,activity at 4 µg/mL,[2]; [10],45%
same,activity at 4 µg/mL,[3]; [11],19%
O=C(O)CC(Br)C(=O)O (stereo not shown) [bromosuccinic acid],Utilization as carbon source to produce CO2,[4],able to utilize this carbon source only slightly to produce CO2
same,pH of the sensor reached (change from 10),"[4]; four hours, 37° C., by eye",8.5 pH
same,Utilization as carbon source to produce CO2,[5],preferred carbon source
same,pH of the sensor reached (change from 10),"[5]; four hours, 37° C., by eye",approximately 6 pH
O=C1CN(/N=C/c2ccc([N+](=O)[O-])o2)C(=O)N1 [Nitrofurantoin],activity at 15 µg/mL,"Escherichia coli 29194; Escherichia coli, 29194, 15 mcg (per milliliter), 4 h, 37° C., 5×10^7 CFU/ml, read-out: Percent growth as compared to a growth control without antibiotics",14%
same,activity at 15 µg/mL,"[1]; Pseudomonas aeruginosa, 27853, 15 mcg (per milliliter), 4 h, 37° C., 5×10^7 CFU/ml, read-out: Percent growth as compared to a growth control without antibiotics",112%
same,activity at 15 µg/mL,"[2]; Staphylococcus aureus, 25923, 15 mcg (per milliliter), 4 h, 37° C., 5×10^7 CFU/ml, read-out: Percent growth as compared to a growth control without antibiotics",33%
same,activity at 15 µg/mL,"[3]; Enterococcus faecalis, 29212, 15 mcg (per milliliter), 4 h, 37° C., 5×10^7 CFU/ml, read-out: Percent growth as compared to a growth control without antibiotics",110%
CCn1cc(C(=O)O)c(=O)c2ccc(C)nc21 [Nalidixic acid],activity at 15 µg/mL,Escherichia coli 29194; [12],18%
same,activity at 15 µg/mL,[1]; [9],109%
same,activity at 15 µg/mL,[2]; [10],80%
same,activity at 15 µg/mL,[3]; [11],116%
NC[C@H]1O[C@H](O[C@H]2[C@H](O)[C@@H](O[C@H]3O[C@H](CO)[C@@H](O)[C@H](N)[C@H]3O)[C@H](N)C[C@@H]2N)[C@H](O)[C@@H](O)[C@@H]1O [Kanamycin],Percent growth as compared to a growth control without antibiotics,[6],95%
same,Percent growth as compared to a growth control without antibiotics,Escherichia coli 33582,66%
same,Percent growth as compared to a growth control without antibiotics,Proteus mirabilis 33583,44%
same,Percent growth as compared to a growth control without antibiotics,[7],105%
same,activity at 22 µg/mL,Escherichia coli 29194; [12],91%
same,activity at 22 µg/mL,[1]; [9],72%
same,activity at 22 µg/mL,[2]; [10],13%
same,activity at 22 µg/mL,[3]; [11],95%
CN[C@H](CC(C)C)C(=O)N[C@H]1C(=O)N[C@@H](CC(N)=O)C(=O)N[C@H]2C(=O)N[C@H]3C(=O)N[C@H](C(=O)N[C@H](C(=O)O)c4cc(O)cc(O)c4-c4cc3ccc4O)[C@H](O)c3ccc(c(Cl)c3)Oc3cc2cc(c3O[C@@H]2O[C@H](CO)[C@@H](O)[C@H](O)[C@H]2O[C@H]2C[C@](C)(N)[C@H](O)[C@H](C)O2)Oc2ccc(cc2Cl)[C@H]1O [Vancomycin],activity at 10 µg/mL,Escherichia coli 29194; [12],94%
same,activity at 10 µg/mL,[1]; [9],106%
same,activity at 10 µg/mL,[2]; [10],22%
same,activity at 10 µg/mL,[3]; [11],15%
CN(C)C1C(=O)C(C(N)=O)=C(O)C2(O)C(=O)C3=C(O)c4c(O)cccc4C(C)(O)C3CC12 (stereo not shown) [Tetracycline],activity at 0.5 µg/mL,Escherichia coli 29194; [12],76%
same,activity at 0.5 µg/mL,[1]; [9],120%
same,activity at 0.5 µg/mL,[2]; [10],15%
same,activity at 0.5 µg/mL,[3]; [11],109%
COc1cccc(OC)c1C(=O)N[C@@H]1C(=O)N2[C@@H]1SC(C)(C)[C@@H]2C(=O)O [Methicillin],activity at 5 µg/mL,"Escherichia coli 29194; Escherichia coli, 29194, 5 mcg (per milliliter), 4 h, 37° C., 5×10^7 CFU/ml, read-out: Percent growth as compared to a growth control without antibiotics",111%
same,activity at 5 µg/mL,"[1]; Pseudomonas aeruginosa, 27853, 5 mcg (per milliliter), 4 h, 37° C., 5×10^7 CFU/ml, read-out: Percent growth as compared to a growth control without antibiotics",146%
same,activity at 5 µg/mL,"[2]; Staphylococcus aureus, 25923, 5 mcg (per milliliter), 4 h, 37° C., 5×10^7 CFU/ml, read-out: Percent growth as compared to a growth control without antibiotics",16%
same,activity at 5 µg/mL,"[3]; Enterococcus faecalis, 29212, 5 mcg (per milliliter), 4 h, 37° C., 5×10^7 CFU/ml, read-out: Percent growth as compared to a growth control without antibiotics",116%
